The target of this assay is T1, Human M4 (Homo sapiens, UniProt P08173).
T1 construct: expressed in transfected cells; host or cells: CHO-K1 (ATCC), co-transfected with chimeric G protein Gqi5
T1 sequence (P08173 1-479): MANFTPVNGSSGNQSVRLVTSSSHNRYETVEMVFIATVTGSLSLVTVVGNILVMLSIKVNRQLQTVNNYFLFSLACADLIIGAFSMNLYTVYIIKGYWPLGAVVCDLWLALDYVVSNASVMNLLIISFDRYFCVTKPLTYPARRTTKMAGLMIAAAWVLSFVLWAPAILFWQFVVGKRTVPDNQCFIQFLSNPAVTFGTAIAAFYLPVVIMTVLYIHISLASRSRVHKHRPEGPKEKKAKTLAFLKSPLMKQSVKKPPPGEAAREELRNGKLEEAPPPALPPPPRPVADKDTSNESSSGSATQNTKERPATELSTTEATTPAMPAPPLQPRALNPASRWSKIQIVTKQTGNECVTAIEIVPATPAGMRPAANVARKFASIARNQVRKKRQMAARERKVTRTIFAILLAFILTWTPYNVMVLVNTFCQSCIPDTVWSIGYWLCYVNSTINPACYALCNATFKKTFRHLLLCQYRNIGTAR
The assay can be described thus: mAChR M4 cell-based functional assay (calcium flux, antagonism of EC80 acetylcholine response). The conditions noted are these: for IC50: concentration-dependent decrease of the response elicited by an EC80 concentration of acetylcholine. The protocol:
Human or rat M4 cDNA, along with the chimeric G protein Gqi5, were transfected into Chinese hamster ovary (CHO-K1) cells purchased from the American Type Culture Collection using Lipofectamine2000. M4/Gqi5/CHO cells were grown in Ham's F-12 medium containing 10% heat-inactivated fetal bovine serum (FBS), 20 mM HEPES, 500 μg/mL G418 sulfate, and 200 μg/mL Hygromycin B.
For high throughput measurement of agonist-evoked increases in intracellular calcium, CHO-K1 cells stably expressing muscarinic receptors were plated in growth medium lacking G418 and hygromycin at 15,000 cells/20 μL/well in Greiner 384-well black-walled, tissue culture (TC)-treated, clear-bottom plates (VWR). Cells were incubated overnight at 37° C. and 5% CO2. The next day, cells were washed using an ELX 405 (BioTek) with assay buffer; the final volume was then aspirated to 20 μL. Next, 20 μL of a 2.3 μM stock of Fluo-4/acetoxymethyl ester (Invitrogen, Carlsbad, CA), prepared as a 2.3 mM stock in DMSO and mixed in a 1:1 ratio with 10% (w/v) Pluronic F-127 and diluted in assay buffer, was added to the wells and the cell plates were incubated for 50 min at 37° C. and 5% CO2. Dye was removed by washing with the ELX 405 and the final volume was aspirated to 20 μL. Compound master plates were formatted in a 10 point concentration-response curve (CRC) format (1:3 dilutions) in 100% DMSO with a starting concentration of 10 or 1 mM using a BRAVO liquid handler (Agilent). Test compound CRCs were then transferred to daughter plates (240 nL) using the Echo acoustic plate reformatter (Labcyte, Sunnyvale, CA) and then diluted into assay buffer (40 μL) to a 2× stock using a Thermo Fisher Combi (Thermo Fisher Scientific, Waltham, MA).
Calcium flux was measured using the Functional Drug Screening System (FDSS) 6000 or 7000 (Hamamatsu Corporation, Tokyo, Japan) as an increase in the fluorescent static ratio. Compounds were applied to cells (20 μL, 2×) using the automated system of the FDSS at 2 seconds into the protocol and the data were collected at 1 Hz. At 143 s, 10 μL of an EC20 concentration of the muscarinic receptor agonist acetylcholine was added (5×), followed by the addition of 12 μL of an EC80 concentration of acetylcholine at the 268 s time point (5×). Agonist activity was analyzed as a concentration-dependent increase in calcium mobilization upon compound addition. Positive allosteric modulator activity was analyzed as a concentration-dependent increase in the EC20 acetylcholine response. Antagonist activity was analyzed as a concentration-dependent decrease in the EC80 acetylcholine response; for the purposes of the tables herein, an IC50 (inhibitory concentration 50) was calculated as a concentration-dependent decrease of the response elicited by an EC80 concentration of acetylcholine. Concentration-response curves were generated using a four-parameter logistical equation in XLFit curve fitting software (IDBS, Bridgewater, NJ) for Excel (Microsoft, Redmond, WA) or Prism (GraphPad Software, Inc., San Diego, CA) or the Dotmatics software platform (Dotmatics, Bishop's Stortford, UK).
Compounds were synthesized as described above. Activity (IC50 and Emin) was determined in the mAChR M4 cell-based functional assay as described above and the data are shown in Table 2.
(Calcium flux is commonly read through the fluorescence of an indicator in the cells.)

The mark [1] stands for this setting: M4/Gqi5/CHO-K1 cells, % ACh maximum at 30 μM, read-out: Human M4 Emin (% ACh maximum at 30 μM).
[2] abbreviates: M4/Gqi5/CHO-K1 cells, % ACh maximum at 30 μM.

SMILES strings stand for the structures. Read-outs that look alike come from different tables or passages of the source.

Take `NC(=O)c1ccc(-c2ccc(N[C@H]3C[C@@H]4CN(CC5CCOCC5)C[C@@H]4C3)nn2)c(F)c1` [Compound A36, 3-fluoro-4-(6-(((3aR,5s,6aS)-2-((tetrahydro-2H-pyran-4-yl)methyl)octahydrocyclopenta[c]pyrrol-5-yl)amino)pyridazin-3-yl)benzamide]: under setting [1], the remaining activity at 30 µM turned out to be 4%. For the same compound, the IC50 (M4/Gqi5/CHO-K1 cells) stood at 0.0051 µM.
On to `[2H]C([2H])([2H])C(=O)Nc1ccccc1-c1ccc(N[C@H]2C[C@@H]3CN(C([2H])([2H])C4CCOCC4)C[C@@H]3C2)nn1` [Compound B4, N-(2-(6-(((3aR,5s,6aS)-2-((tetrahydro-2H-pyran-4-yl)methyl-d2)octahydrocyclopenta [c]pyrrol-5-yl)amino)pyridazin-3-yl)phenyl) acetamide-2,2,2-d3], for which the “Human M4 Emin (% ACh maximum at 30 μM)” value under setting [2] is reported as 4%. Also, the IC50 (M4/Gqi5/CHO-K1 cells) is 0.12 µM.
`[2H]C([2H])(C1CCOCC1)N1C[C@H]2C[C@H](Nc3ccc(-c4ccc(C(=O)NC)cc4)nn3)C[C@H]2C1` (single isomer, unassigned) [Compound A64]: the remaining activity at 30 µM under setting [1] turned out to be 5%. The IC50 (M4/Gqi5/CHO-K1 cells) worked out at 0.016 µM.
On the same counts, the results for `[2H]C([2H])(C1CCOCC1)N1C[C@H]2C[C@H](Nc3ccc(-c4cccc(C(=O)NC5CC5)c4)nn3)C[C@H]2C1` [Compound A33, N-cyclopropyl-3-(6-(((3aR,5s,6aS)-2-((tetrahydro-2H-pyran-4-yl)methyl-d2)octahydrocyclopenta[c]pyrrol-5-yl)amino)pyridazin-3-yl)benzamide] are 3% and 0.022 µM.
Turning to `[2H]C([2H])(C1CCOCC1)N1C[C@H]2C[C@H](Nc3ccc(-c4ccc(C(=O)NC5CC5)cc4)nn3)C[C@H]2C1` [Compound A34, N-cyclopropyl-4-(6-(((3aR,5s,6aS)-2-((tetrahydro-2H-pyran-4-yl)methyl-d2)octahydrocyclopenta[c]pyrrol-5-yl)amino)pyridazin-3-yl)benzamide], under setting [1], the remaining activity at 30 µM was found to be 4%. Besides, the IC50 (M4/Gqi5/CHO-K1 cells) turned out to be 0.0011 µM.
The like results for `O=C(NC1CC1)c1ccc(-c2ccc(N[C@H]3C[C@@H]4CN(CC5CCOCC5)C[C@@H]4C3)nn2)cc1` [Compound A27, N-cyclopropyl-4-(6-(((3aR,5s,6aS)-2-((tetrahydro-2H-pyran-4-yl)methyl)octahydrocyclopenta[c]pyrrol-5-yl)amino)pyridazin-3-yl)benzamide] were, in that order, 3% and 0.0039 µM.
The like results for `N#CCC(=O)Nc1cc(F)c(F)c(-c2ccc(N[C@H]3C[C@@H]4CN(CC5CCOCC5)C[C@@H]4C3)nn2)c1` [Compound A16, 2-cyano-N-(3,4-difluoro-5-(6-(((3aR,5s,6aS)-2-((tetrahydro-2H-pyran-4-yl)methyl)octahydrocyclopenta[c]pyrrol-5-yl)amino)pyridazin-3-yl)phenyl)acetamide] were, in that order, 4% and 0.047 µM.
As to `[2H]C([2H])(C1CCOCC1)N1C[C@H]2C[C@H](Nc3ccc(-c4cc(F)c(C(=O)N(C)C)c(F)c4F)nn3)C[C@H]2C1` [Compound A67, 2,3,6-Trifluoro-N,N-dimethyl-4-(6-(((3aR,5s,6aS)-2-((tetrahydro-2H-pyran-4-yl)methyl-d2)octahydrocyclopenta[c]pyrrol-5-yl)amino)pyridazin-3-yl)benzamide], the remaining activity at 30 µM (CHO-K1, read-out: Human M4 Emin (% ACh maximum at 30 μM)) stood at 4%. Also, where the note is “M4/Gqi5/CHO-K1 cells”, the IC50 stood at 0.011 µM.
As to `[2H]C([2H])(C1CCOCC1)N1C[C@H]2C[C@H](Nc3ccc(-c4ccccc4NC(=O)CC)nn3)C[C@H]2C1` [Compound A50, N-(2-(6-(((3aR,5s,6aS)-2-((tetrahydro-2H-pyran-4-yl)methyl-d2)octahydrocyclopenta[c]pyrrol-5-yl)amino)pyridazin-3-yl)phenyl)propionamide], the remaining activity at 30 µM under setting [1] worked out at 4%. In addition, for the setting “M4/Gqi5/CHO-K1 cells”, the IC50 was 0.056 µM.
As for `[2H]C([2H])(C1CC(C)(C)OC(C)(C)C1)N1C[C@H]2C[C@H](Nc3ccc(-c4cccc(C(=O)NC)c4)nn3)C[C@H]2C1` [Compound A76, N-methyl-3-(6-(((3aR,5s,6aS)-2-((2,2,6,6-tetramethyltetrahydro-2H-pyran-4-yl)methyl-d2)octahydrocyclopenta[c]pyrrol-5-yl)amino)pyridazin-3-yl)benzamide], under setting [1], the remaining activity at 30 µM worked out at 4%. Under “M4/Gqi5/CHO-K1 cells”, the IC50 was 0.099 µM.
On the same counts, the results for `[2H]C1([2H])CC(C([2H])([2H])N2C[C@H]3C[C@H](Nc4ccc(-c5cccc(C(=O)NC)c5)nn4)C[C@H]3C2)CC([2H])([2H])O1` (single isomer, unassigned) [Compound A74] are 4% and 0.04 µM.
Turning to `[2H]C([2H])(C1CCOCC1)N1C[C@H]2C[C@H](Nc3ccc(-c4ccccc4NC(C)=O)nn3)C[C@H]2C1` [Compound B2, N-(2-(6-(((3aR,5s,6aS)-2-((tetrahydro-2H-pyran-4-yl)methyl-d2)octahydrocyclopenta [c]pyrrol-5-yl)amino)pyridazin-3-yl)phenyl)acetamide], the “Human M4 Emin (% ACh maximum at 30 μM)” value under setting [2] is recorded as 3%. The IC50 (M4/Gqi5/CHO-K1 cells) came to 0.058 µM.
Take `[2H]C([2H])(C1CCOCC1)N1C[C@H]2C[C@H](Nc3ccc(-c4ccc(F)c(C(=O)NC)c4)nn3)C[C@H]2C1` [Compound A73, 2-fluoro-N-methyl-5-(6-(((3aR,5s,6aS)-2-((tetrahydro-2H-pyran-4-yl)methyl-d2)octahydrocyclopenta[c]pyrrol-5-yl)amino)pyridazin-3-yl)benzamide]: under setting [1], the remaining activity at 30 µM amounted to 7%. For the setting “M4/Gqi5/CHO-K1 cells”, the IC50 was found to be 0.31 µM.
Consider `[2H]C([2H])(C1CCOCC1)N1C[C@H]2C[C@H](Nc3ccc(-c4cccc(C(=O)NCC)c4)nn3)C[C@H]2C1` [Compound A46, N-ethyl-3-(6-(((3aR,5s,6aS)-2-((tetrahydro-2H-pyran-4-yl)methyl-d2)octahydrocyclopenta[c]pyrrol-5-yl)amino)pyridazin-3-yl)benzamide], for which, under setting [1], the remaining activity at 30 µM was found to be 4%. Moreover, under “M4/Gqi5/CHO-K1 cells”, the IC50 is 0.02 µM.
The like results for `CN(C)C(=O)c1ccc(-c2ccc(N[C@H]3C[C@@H]4CN(CC5CCOCC5)C[C@@H]4C3)nn2)c(F)c1` [Compound A37, 3-fluoro-N,N-dimethyl-4-(6-(((3aR,5s,6aS)-2-((tetrahydro-2H-pyran-4-yl)methyl)octahydrocyclopenta[c]pyrrol-5-yl)amino)pyridazin-3-yl)benzamide] were, in that order, 5% and 0.014 µM.
On the same counts, the results for `[2H]C([2H])(C1CCOCC1)N1C[C@H]2C[C@H](Nc3ccc(-c4cc(F)cc(C(=O)NC)c4)nn3)C[C@H]2C1` [Compound A71, 3-Fluoro-N-methyl-5-(6-(((3aR,5s,6aS)-2-((tetrahydro-2H-pyran-4-yl)methyl-d2)octahydrocyclopenta[c]pyrrol-5-yl)amino)pyridazin-3-yl)benzamide] are 4% and 0.014 µM.

As a reminder, the IC50 is the midpoint of a concentration-inhibition curve.
